Earlier results, collected in US20020064834A1, “Microbiological production method for alpha-L-aspartyl-L-phenylalanine” (priority 1999, published 2002).
Residues, ends and D or L forms follow the SMILES beside them.

Conditions: relative to sucrose

COC(=O)[C@H](Cc1ccccc1)NC(=O)[C@@H](N)CC(=O)O [APM, α-L-aspartyl-L-phenylalanine methyl ester] (H-Asp-Phe-OMe)
sweetness as potent as the sweetness of sucrose: about 200 ×
